# Patent US10611742B2, “4-oxo-4,5-dihydrothiazole derivative, preparation method and use thereof” (Institute of Pharmacology and Toxicology Academy of …, priority 2015, dated 2020)
# Tests used:
# Format in all cases: cell-based
# [1] = test system: enterovirus EV71 (SZ-98 strain); test: anti-EV71 activity, therapeutic effect on Vero cell (CPE inhibition, Celltiter Glo); details: EV71 (SZ-98 strain), therapeutic effect on Vero cell; read-out: IC50
# Method: (§1) Test principle: Vero cell, MRC-5 cell, and RD cell were used as host of virus, respectively, and samples were tested for their inhibition of cytopathic effect (CPE) caused by virus.
# (§2) 1. Virus strain: enterovirus EV71 (SZ-98 strain, provided by Chinese Center for Disease Control and Prevention), Vero cell (provided by the Cell Bank of Chinese Academy of Sciences), MRC-5 cell (provided by the Cell Bank of Chinese Academy of Sciences), and RD cell (provided by the Cell Bank of Chinese Academy of Sciences), were subjected to passage culture, respectively, and stored at −80° C.
# (§3) 2. Sample treatment: a test sample (Compounds 1-14 and positive control agent) was dissolved in dimethyl sulfoxide (DMSO) to prepare a stock solution, which was stored at −20° C. The stock solution was diluted with DMEM medium (Gibco Company) containing 2% fetal bovine serum (Gibco Company) to prepare a 100 μM solution before use, and was 3-fold diluted with the medium to obtain 8 diluted concentrates.
# (§4) 3. Positive control agent: Con1 (pitstop2) (purchased from AmyJet Scientific Inc., Abcam), a broad-spectrum antiviral inhibitor.
# (§5) 4. Test method: • 4.1 Therapeutic effect: the cells were seeded on a 96-well culture plate, and cultured in a 5% CO2, 37° C. incubator for 24 h. About 100 TCID50 enterovirus EV71 was added to each well. After adsorption at 37° C. for 1 h, the virus solution was discarded, and a drug was added at different diluted concentrates, respectively. Meanwhile, virus control and cell control were set, and cultured at 37° C. […] The virus-inhibition rate of a sample at each concentration was calculated based on the chemiluminescent value, the sample concentration was used as abscissa, and the inhibition rate was used as ordinate, and S-Curve fitting was performed by using Origin software. Half maximal inhibitory concentration (IC50) of each sample for enterovirus EV71 was calculated based on the fitting results. Median toxic concentration (TC50) was determined by the same method. […] To each well, a drug was added at a different diluted concentration, then the cells were cultured at 37° C. for 2 h, and then the drug was discarded. About 100 TCID50 enterovirus EV71 was added to each well, adsorbed at 37° C. for 1.5 h, then the virus solution was discarded, and a maintenance medium free of drug was added. Meanwhile, virus control and cell control were set, and cultured at 37° C. […] The virus-inhibition rate of a sample at each concentration was calculated, and half maximal inhibitory concentration (IC50), median toxic concentration (TC50), and selection index (SI) of each sample for enterovirus EV71 were calculated. The methods for determining and calculating them were as described in Item 4.1
# [2] = median toxic concentration on Vero cell; details: African green monkey, Vero cells; for CC50: Table 1-1 (therapeutic effect), read-out: TC50 (the source's name); for CC50 at 2 h: Table 2-1 (preventive effect), read-out: TC50
# Method: as §2, §3, §5
# [3] = test system: enterovirus EV71 (SZ-98 strain); test: anti-EV71 activity, preventive effect on RD cell (CPE inhibition)
# Method: as §1, §2, §3, §4, §5
# [4] = median toxic concentration on RD cell; details: human, RD cells; for CC50: read-out: TC50 (the source's name); for CC50 at 2 h: Table 2-2 (preventive effect), read-out: TC50
# Method: as §2, §3, §5
# [5] = median toxic concentration on MRC-5 cell; details: human, MRC-5 cells, Table 1-2 (therapeutic effect), read-out: TC50 (the source's name)
# Method: as §2, §3, §5
# [6] = test system: enterovirus EV71 (SZ-98 strain); test: anti-EV71 activity, therapeutic effect on MRC-5 cell (CPE inhibition, Celltiter Glo); details: MRC5
# Method: as §1, §2, §3, §4, §5
# [7] = test system: enterovirus EV71 (SZ-98 strain); test: anti-EV71 activity, preventive effect on Vero cell (CPE inhibition)
# Method: as §1, §2, §3, §4, §5
# [8] = test system: enterovirus EV71 (SZ-98 strain); test: anti-EV71 activity, therapeutic effect on RD cell (CPE inhibition, Celltiter Glo)
# Method: as §1, §2, §3, §4, §5
# [9] = test system: clathrin-mediated endocytosis of transferrin; test: inhibition of clathrin-mediated endocytosis of transferrin in HeLa cells (fluorescence microscope); details: for inhibitory effect on endocytosis of transferrin (in words): 1.25 to 40 μmol/L; for inhibition at 20 µM: Homo sapiens, 20 μM compound, read-out: Inhibition rate
# Method: 1. Experiment principle: transferrin was a key protein for clathrin-mediated endocytosis. Therefore, by determining the effect of a compound on transferrin in HeLa cell, the inhibitory effect of the compound on clathrin-mediated endocytosis could be evaluated. 2. Sample treatment: a test compound was dissolved in DMSO to prepare a stock solution, which was stored at −20° C. The stock solution was diluted with HEPES buffer (25 mm HEPES, 20 mm Glucose, 1% BSA, sterile water) to prepare a solution with an initial concentration of […] before use, and was 2-fold diluted with the buffer to obtain 6 diluted concentrations from 1.25 to 40 μmol/L. 4. Test method: HeLa cells (provided by the Cell Bank of Chinese Academy of Sciences) were seeded on a 24-well culture plate coated with 0.1 mg/ml polylysine, a serum-free medium DMEM (Gibco Company) was added at 500 μl/well, and the cells were cultured for one night. To each well, 0.5 μl a test compound at a different diluted concentration or 0.1 v/v % DMSO was added, then the pretreatment was performed for 15 min, and then 20 μg/ml alexa^568 transferrin (2 μl) (TF, SIGMA-ALDRICH Company) was added, and the incubation was carried out at 37° C. for 15 min. The resultant mixture was then washed with Live Cell Imaging Solution (LCIS, Invitrogen Company) and an acid at a low pH ([…] NaCl solution containing 0.5% acetic acid) for 30 s, respectively, followed by fixing with cold methanol, and was observed under fluorescence microscope.
SMILES,IC50 [1] [µM],IC50 [3] [µM],IC50 [7] [µM],IC50 ([8]; EV71 (SZ-98 strain)) [µM],"IC50 ([8]; Enterovirus, EV71) [µM]",CC50 [2] [µM],CC50 at 2 h [2] [µM],CC50 ([4]; Table 1-3 (therapeutic effect)) [µM],CC50 at 2 h [4] [µM],CC50 [5] [µM],IC50 [6] [µM],inhibitory effect on endocytosis of transferrin (in words) [9],inhibition at 20 µM [9] [%],CC50 [4] [µM],anti-EV71 activity (in words) [8],endocytosis of transferrin at 20 μM (in words) ([9]; 20 μM)
"O=C1N=C(NS(=O)(=O)c2cccc3ccccc23)S/C1=C\c1ccc(Cl)cc1Cl [Compound 1, Naphthalene-1-sulfonic acid [5-(2,4-dichloro-benzylidene)-4-oxo-4,5-dihydro-thiazol-2-yl] amide]",7.41,> 7.41,> 7.41,> 7.41,–,10.7,10.7,12.8,12.8,12.8,> 7.41,–,–,–,–,–
"O=C1N=C(NS(=O)(=O)c2cccc3ccccc23)S/C1=C\c1ccc(Br)cc1 [Con 1, Naphthalene-1-sulfonic acid [5-(4-bromo-benzylidene)-4-oxo-4,5-dihydro-thiazol-2-yl] amide, reference compound]",> 2.47,5.14,> 2.47,5.41,5.14,4.28,4.28,–,12.8,10.7,> 2.47,dose-dependent,50,12.8,–,–
"O=C1N=C(NS(=O)(=O)c2cccc3ccccc23)SC1Nc1ccccc1 (stereo not drawn) [Compound 13, Naphthalene-1-sulfonic acid (4-oxo-5-phenylamino-4,5-dihydro-thiazol-2-yl) amide]",> 22.2,7.41,> 22.2,> 22.2,–,66.7,66.7,66.7,66.7,66.7,> 22.2,–,50,–,–,–
"O=C1N=C(NS(=O)(=O)c2cccc3ccccc23)S/C1=C\c1ccc(-c2ccccc2)cc1 [Compound 11, Naphthalene-1-sulfonic acid (5-biphenyl-4-yl-methylene-4-oxo-4,5-dihydro-thiazol-2-yl) amide]",> 0.82,> 22.2,> 0.82,> 22.2,–,3.56,3.56,46.2,46.2,32,> 7.41,–,–,–,–,–
"CC(=O)Nc1ccc(/C=C2\SC(NS(=O)(=O)c3cccc4ccccc34)=NC2=O)cc1 [Compound 12, Naphthalene-1-sulfonic acid [5-(4-acetylamino-benzylidene)-4-oxo-4,5-dihydro-thiazol-2-yl] amide]",> 22.2,> 22.2,> 22.2,> 22.2,–,32,32,38.5,38.5,38.5,> 22.2,–,–,–,–,–
"O=C1N=C(NS(=O)(=O)c2cccc3ccccc23)S/C1=C\c1ccc(Cl)cc1 [Compound 4, Naphthalene-1-sulfonic acid [5-(4-chloro-benzylidene)-4-oxo-4,5-dihydro-thiazol-2-yl] amide]",> 2.47,> 7.41,> 2.47,5.75,5.75,4.28,4.28,–,12.8,12.8,> 7.41,–,–,12.8,better anti-EV71 activity,–
"COc1cccc(OC)c1/C=C1\SC(NS(=O)(=O)c2cccc3ccccc23)=NC1=O [Compound 9, Naphthalene-1-sulfonic acid [5-(2,6-dimethoxy-benzylidene)-4-oxo-4,5-dihydro-thiazol-2-yl] amide]",> 22.2,> 7.41,> 22.2,> 7.41,–,38.5,38.5,12.8,12.8,38.5,> 22.2,–,–,–,–,–
"O=C1N=C(NS(=O)(=O)c2cccc3ccccc23)SC1C(c1ccccc1)c1ccc(Br)cc1 (stereo not drawn) [Compound 14, Naphthalene-1-sulfonic acid {5-[(4-bromo-phenyl)-phenyl-methyl]-4-oxo-4,5-dihydro-thiazol-2-yl} amide]",15.4,22.2,> 22.2,15.4,–,32,32,38.5,38.5,32,15.4,dose-dependent,100,–,better anti-EV71 activity,completely inhibited

# More lines, main results first:
IC50 [1] [µM],IC50 [3] [µM],IC50 [7] [µM],IC50 ([8]; EV71 (SZ-98 strain)) [µM],"IC50 ([8]; Enterovirus, EV71) [µM]",SMILES,CC50 [2] [µM],CC50 at 2 h [2] [µM],CC50 ([4]; Table 1-3 (therapeutic effect)) [µM],CC50 at 2 h [4] [µM],CC50 [5] [µM],IC50 [6] [µM],inhibitory effect on endocytosis of transferrin (in words) [9],inhibition at 20 µM [9] [%],CC50 [4] [µM],anti-EV71 activity (in words) [8],endocytosis of transferrin at 20 μM (in words) ([9]; 20 μM)
> 7.41,> 7.41,> 7.41,> 7.41,–,"COc1cc(/C=C2\SC(NS(=O)(=O)c3cccc4ccccc34)=NC2=O)ccc1O [Compound 2, Naphthalene-1-sulfonic acid [5-(3-methoxy-4-hydroxy-benzylidene)-4-oxo-4,5-dihydro-thiazol-2-yl] amide]",12.8,12.8,22.2,22.2,22.2,> 7.41,–,–,–,–,–
> 7.41,> 22.2,> 7.41,22.2,–,"O=C1N=C(NS(=O)(=O)c2cccc3ccccc23)S/C1=C\c1ccc(O)c(Br)c1 [Compound 8, Naphthalene-1-sulfonic acid [5-(3-bromo-4-hydroxy-benzylidene)-4-oxo-4,5-dihydro-thiazol-2-yl] amide]",12.8,12.8,66.7,66.7,9.54,> 2.47,–,–,–,better anti-EV71 activity,–
> 2.47,> 0.82,> 2.47,> 0.82,–,"COc1ccc(/C=C2\SC(NS(=O)(=O)c3cccc4ccccc34)=NC2=O)cc1O [Compound 7, Naphthalene-1-sulfonic acid [5-(3-hydroxy-4-methoxy-benzylidene)-4-oxo-4,5-dihydro-thiazol-2-yl] amide]",7.41,7.41,3.56,3.56,10.7,> 2.47,–,–,–,–,–
> 22.2,> 22.2,> 22.2,15.4,–,"O=C1N=C(NS(=O)(=O)c2cccc3ccccc23)S/C1=C\c1cccc(O)c1 [Compound 6, Naphthalene-1-sulfonic acid [5-(3-hydroxy-benzylidene)-4-oxo-4,5-dihydro-thiazol-2-yl] amide]",38.5,38.5,38.5,38.5,38.5,> 22.2,–,–,–,better anti-EV71 activity,–
